Literature values as cited in publication PMC10089180 (Proceedings of the National Academy of Sciences of the …, 2023).

Columns and labels:
[1] = no reference given
[2] = tested on: chemerin receptor; conditions: Y1 missing or substituted by alanine; ref [17]
[3] = tested on: FPR1; conditions: tripeptide; ref [26], [27]
[4] = biological target: FPR1; conditions: ref [38]
[5] = ref [15], [16]

With Asp-Arg-Val-Tyr-Ile-His-Pro-Phe [AngII] as the molecule, how does the chemotactic activity [1] read?
The chemotactic activity was “does not display chemotactic activity”.

With “Y1 missing: C9 when Y1 was missing (FPGQFAFS; UniProt Q99969 150-157, looked up, fragment)” as the molecule, how does the “reduced activity in functional assays” value [2] read?
Its value is ~ 30%.

What does the source list for fMLF?
agonistic activity at FPR1 [3]: full agonistic activity; dissociation constant [4]: low nanomolar range

B1: prochemerin (21-163): Removal of the N-terminal signal peptide results in prochemerin (21-163) (protein, UniProt Q99969 21-163, looked up)
pro-form: ELTEAQRRGLQVALEEFHKHPPVQWAFQETSVESAVDTPFPAGIFVRLEFKLQQTSCRKRDWKKPECKVRPNGRKRKCLACIKLGSEDKVLGRLVHCPIETQVLREAEEHQETQCLRVQRAGEDPHSFYFPGQFAFSKALPRS
modifications: pro-form
Which “chemotactic activity / bioactivity of chemerin form” value [5] does the source give for B1 here?
Its value is “low bioactivity”.

B2: Pre-prochemerin: 163-amino acid protein without chemotactic activity (protein, UniProt Q99969 1-163, looked up)
chain: MRRLLIPLALWLGAVGVGVAELTEAQRRGLQVALEEFHKHPPVQWAFQETSVESAVDTPFPAGIFVRLEFKLQQTSCRKRDWKKPECKVRPNGRKRKCLACIKLGSEDKVLGRLVHCPIETQVLREAEEHQETQCLRVQRAGEDPHSFYFPGQFAFSKALPRS
modifications: full-length
For B2, which “chemotactic activity / bioactivity of chemerin form” value [5] is on record?
Its value is “without chemotactic activity”.
